Measured values as given in patent publication US8349883B2, “Hydroxamate-based inhibitors of deacetylases B” (Novartis AG, priority 2008, dated 2013).

What was measured:
[1] = target: T1, HDAC-1 (Homo sapiens, UniProt Q13547); assay: HDAC inhibition assay (purified GST-HDAC protein); type: biochemical
T1 construct: made in house; host or cells: Sf9 or Sf21 insect cells (baculovirus, donor vector pFB-GSTX3)

[2] = test system: HCT116; assay: HCT116 IC50; type: cell-based; settings: Homo sapiens, HCT-116

T1 sequence (Q13547 whole entry, species assumed): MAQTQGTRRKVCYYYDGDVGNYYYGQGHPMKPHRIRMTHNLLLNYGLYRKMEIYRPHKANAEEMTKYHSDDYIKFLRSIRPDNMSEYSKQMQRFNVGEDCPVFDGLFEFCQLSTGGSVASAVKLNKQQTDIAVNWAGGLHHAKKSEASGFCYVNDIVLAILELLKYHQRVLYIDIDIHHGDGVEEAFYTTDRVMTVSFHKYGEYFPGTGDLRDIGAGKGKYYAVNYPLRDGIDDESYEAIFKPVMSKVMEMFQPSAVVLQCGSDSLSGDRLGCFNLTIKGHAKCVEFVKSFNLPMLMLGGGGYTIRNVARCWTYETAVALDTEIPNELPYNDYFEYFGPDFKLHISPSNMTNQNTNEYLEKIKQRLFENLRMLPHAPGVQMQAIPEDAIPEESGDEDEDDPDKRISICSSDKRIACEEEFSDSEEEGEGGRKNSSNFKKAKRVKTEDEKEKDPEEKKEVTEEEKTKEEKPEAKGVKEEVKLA

Row | IC50 [1] [nM] | IC50 [2] [nM] | SMILES
1 | 1.2 | 4 | O=C(/C=C/c1ccc([C@@H]2CCCN2CCc2c[nH]c3ncccc23)cc1)NO [Compound 51, (E)-N-Hydroxy-3-(4-{(S)-1-[2-(1H-pyrrolo[2,3-b]pyridin-3-yl)-ethyl]-pyrrolidin-2-yl}-phenyl)-acrylamide]
2 | 31 | 210 | O=C(/C=C/c1ccc([C@@H]2CCCN2CCc2cn(CCOCc3ccccc3)nn2)cc1)NO [Compound 76, (E)-3-[4-((S)-1-{2-[1-(2-Benzyloxy-ethyl)-1H-[1,2,3]triazol-4-yl]-ethyl}-pyrrolidin-2-yl)-phenyl]N-hydroxy-acrylamide]
3 | 3 | 11 | O=C(/C=C/c1ccc(C2CCCN2CCc2ccc(O)cc2)cc1)NO (centres unmarked) [Compound 20, (E)-N-Hydroxy-3-(4-{1-[2-(4-hydroxy-phenyl)-ethyl]-pyrrolidin-2-yl}-phenyl)-acrylamide]
4 | 10 | 40 | CC(C)CCN1CCCC1c1ccc(/C=C/C(=O)NO)cc1 (centres unmarked) [Compound 36, (E)-N-Hydroxy-3-{4-[1-(3-methyl-butyl)-pyrrolidin-2-yl]-phenyl}-acrylamide]
